# Source: US8546440B2, “Substituted bicyclic imidazole derivatives as gamma secretase modulators” (Janssen Pharmaceuticals, Inc., priority 2008, dated 2013)
# How the values were obtained:
# [1] = system: Aβ42; assay: Screening for γ-secretase-modulating activity, Method 1: Aβ42 sandwich ELISA in supernatant of SKNBE2 cells carrying APP 695 wild type (Tables 12a, 12b); assay type: cell-based
# Description: (§1) Screening was carried out using SKNBE2 cells carrying the APP 695—wild type, grown in Dulbecco's Modified Eagle's Medium/Nutrient mixture F-12 (DMEM/NUT-mix F-12) (HAM) provided by Gibco (cat no. 31330-38) containing 5% Serum/Fe supplemented with 1% non-essential amino acids. Cells were grown to near confluency.
# (§2) The screening was performed using the assay as described in Citron et al (1997) Nature Medicine 3: 67. Briefly, cells were plated in a 96-well plate at about 10^5 cells/ml one day prior to addition of compounds. Compounds were added to the cells in Ultraculture (Lonza, BE12-725F) supplemented with 1% glutamine (Invitrogen, 25030-024) for 18 hours. The media were assayed by two sandwich ELISAs, for Aβ42 and Aβtotal. Toxicity of the compounds was assayed by WST-1 cell proliferation reagent (Roche, 1 644 807) according to the manufacturer's protocol.
# To quantify the amount of Aβ42 in the cell supernatant, commercially available Enzyme-Linked-Immunosorbent-Assay (ELISA) kits were used (Innotest® β-Amyloid(1-42), Innogenetics N.V., Ghent, Belgium). The Aβ42 ELISA was performed essentially according to the manufacturer's protocol. Briefly, the standards (dilutions of synthetic Aβ1-42) were prepared in polypropylene Eppendorf with final concentrations of 8000 down to 3.9 pg/ml (1/2 dilution step). Samples, standards and blanks (100 μl) were added to the anti-Aβ42-coated plate supplied with the kit (the capture antibody selectively recognizes the C-terminal end of the antigen). The plate was allowed to incubate 3 h at 25° C. in order to allow formation of the antibody-amyloid complex. Following this incubation and subsequent wash steps a selective anti-Aβ-antibody conjugate (biotinylated 3D6) was added and incubated for a minimum of 1 hour in order to allow formation of the antibody-Amyloid-antibody-complex. After incubation and appropriate wash steps, a Streptavidine-Peroxidase-Conjugate was added, followed 30 minutes later by an addition of 3,3′,5,5′-tetramethylbenzidine (TMB)/peroxide mixture, resulting in the conversion of the substrate into a coloured product. This reaction was stopped by the addition of sulfuric acid (0.9 N) and the colour intensity was measured by means of photometry with an ELISA-reader with a 450 nm filter.
# (§3) To obtain the values reported in Table 12a, the sigmoidal dose response curves were analysed by computerised curve-fitting, with percent of inhibition plotted against compound concentration. A 4-parameter equation (model 205) in XLfit was used to determine the IC50. The top and the bottom of the curve were fixed to 100 and 0, respectively, and the hill slope was fixed to 1. The IC50 represents the concentration of a compound that is required for inhibiting a biological effect by 50% (Here, it is the concentration where Aβ peptide level is reduced by 50%).
# (§4) To obtain the values reported in Table 12b, the data are calculated as percentage of the maximum amount of amyloid Beta 42 measured in the absence of the test compound. The sigmoidal dose response curves were analyzed using non-linear regression analysis with percentage of the control plotted against the log concentration of the compound. A 4-parameter equation was used to determine the IC50. The values reported in Table 12b are averaged IC50 values.
# [2] = system: Aβtotal; assay: Screening for γ-secretase-modulating activity, Method 1: Aβtotal sandwich ELISA in supernatant of SKNBE2 cells carrying APP 695 wild type (Tables 12a, 12b); assay type: cell-based
# Description: as §1, §2
# To quantify the amount of Aβtotal in the cell supernatant, samples and standards were added to a 6E10-coated plate. The plate was allowed to incubate overnight at 4° C. in order to allow formation of the antibody-amyloid complex. Following this incubation and subsequent wash steps a selective anti-Aβ-antibody conjugate (biotinylated 4G8) was added and incubated for a minimum of 1 hour in order to allow formation of the antibody-Amyloid-antibody-complex. After incubation and appropriate wash steps, a Streptavidine-Peroxidase-Conjugate was added, followed 30 minutes later by an addition of Quanta Blu fluorogenic peroxidase substrate according to the manufacturer's instructions (Pierce Corp., Rockford, Ill.).
# as §3, §4
# [3] = Homo sapiens, Method 1, Table 12a, SKNBE2 cells carrying APP 695 wild type, compounds 18 hours, ELISA, curve top and bottom fixed to 100 and 0, hill slope 1
# [4] = Homo sapiens, Table 12b, Method 1, SKNBE2 cells carrying APP 695 wild type, cell supernatant ELISA, averaged IC50 values, percentage of control vs log concentration
# [5] = Homo sapiens, Table 12b, Method 1, SKNBE2 cells carrying APP 695 wild type, cell supernatant ELISA, averaged IC50 values
# [6] = Method 1, Table 12a, SKNBE2 cells carrying APP 695 wild type, compounds 18 hours, ELISA, curve top and bottom fixed to 100 and 0, hill slope 1
# [7] = Table 12b, Method 1, SKNBE2 cells carrying APP 695 wild type, cell supernatant ELISA, averaged IC50 values, percentage of control vs log concentration
# [8] = Table 12b, Method 1, SKNBE2 cells carrying APP 695 wild type, cell supernatant ELISA, averaged IC50 values
Structure (SMILES),"IC50 [1, 3] [nM]","IC50 [1, 4] [nM]","IC50 [2, 3] [nM]","IC50 [2, 5] [nM]","IC50 [1, 6] [nM]","IC50 [1, 7] [nM]","IC50 [2, 6] [nM]","IC50 [2, 8] [nM]"
COc1cc(Nc2cccn3cc(-c4ccc(Cl)cc4)nc23)ccc1-n1cnc(C)c1 [Compound 17],80,71,> 3000,> 3020,,,,
COc1cc(Nc2cccn3cc(-c4ccc(F)cc4)nc23)ccc1-n1ccnc1C [Compound 21],263,204,> 5000,> 5010,,,,
COc1ccc(-c2cn3cccc(Nc4ccc(-n5cnc(C)c5)c(OC)c4)c3n2)c(OC)c1 [Compound 37],190,174,> 10000,> 10000,,,,
COc1cc(Nc2cccn3cc(CN4CCOCC4)nc23)ccc1-n1cnc(C)c1 [Compound 56],601,204,> 10000,> 10000,,,,
COc1cc(Nc2cccn3cc(-c4ccc(F)cc4)nc23)ccc1-n1cc(C)nc1C [Compound 20],,871,,5750,,,,
CCCc1c(-c2ccc(F)cc2)nc2c(Nc3ccc(-n4cnc(C)c4)c(OC)c3)cccn12 [Compound 24],,,,,24,20,> 1000,> 10000
CCCCCCc1cnc2c(Nc3ccc(-n4cnc(C)c4)c(OC)c3)cccn12 [Compound 59],,,,,123,145,> 3000,> 3020
C=Cc1cn2cc(C(F)(F)F)cc(Nc3ccc(-n4cnc(C)n4)c(OC)c3)c2n1 [Compound 154],,> 3020,,> 3020,,,,
COc1cc(Nc2cccn3cc(-c4ccc5ncn(C)c5c4)nc23)ccc1-n1cnc(C)c1 [Compound 44],,617,,> 3020,,,,
Cc1ncn(-c2ccc(Nc3cccn4cc(-c5cc(C(F)(F)F)ccc5C)nc34)cn2)n1 [Compound 84],,,,,,115,,> 3020
COc1cccc(-c2nc3c(Nc4ccc(-n5cnc(C)c5)cn4)cccn3c2C)c1 [Compound 68],,,,,18,18,> 1000,> 3020
COc1cc(Nc2cccn3cc(-c4ccncc4)nc23)ccc1-n1cnc(C)c1 [Compound 43],,> 3020,,> 3020,,,,
COc1cc(Nc2cc(C(F)(F)F)cn3cc(COc4ccc(F)cc4)nc23)ccc1-n1cnc(C)n1 [Compound 147],,42,,> 3020,,,,
COc1cc(Nc2cccn3cc(-c4ccc(F)cc4)nc23)ccc1-n1cnc(C)n1 [Compound 6],239,263,> 10000,> 10000,,,,
COc1cc(Nc2cccn3c(-c4ccccc4-c4ccccc4)cnc23)ccc1-n1cnc(C)c1 [Compound 60],,< 110,,> 3020,,,,
Cc1ccc(C(F)(F)F)cc1-c1cn2cccc(Nc3ccc(-n4ncnc4C)cc3)c2n1 [Compound 75],,126,,> 3020,,,,

Structure (SMILES),"IC50 [1, 3] [nM]","IC50 [1, 4] [nM]","IC50 [2, 3] [nM]","IC50 [2, 5] [nM]","IC50 [1, 6] [nM]","IC50 [1, 7] [nM]","IC50 [2, 6] [nM]","IC50 [2, 8] [nM]"
COc1cc(Nc2cccn3cc(-c4cccc(C(F)(F)F)c4)nc23)ccc1-n1cnc(C)c1 [Compound 48],60,52,> 3000,> 3020,,,,
COc1cc(Nc2cccn3c(-c4cccc(-c5ccccc5)c4)cnc23)ccc1-n1cnc(C)c1 [Compound 61],423,437,> 10000,> 10000,,,,
COc1cc(Nc2cccn3cc(-c4cccc(Cl)c4)nc23)ccc1-n1cnc(C)c1 [Compound 16],58,49,> 3000,> 3020,,,,
COc1cc(Nc2cc(C(F)(F)F)cn3cc(C(=O)O)nc23)ccc1-n1cnc(C)c1 [Compound 156],,,,,,> 3020,,> 3020
COc1cc(Nc2cccn3cc(CN4CCCCC4)nc23)ccc1-n1cnc(C)c1 [Compound 55],,,,,,1290,,> 3020
COc1cccc(-c2nc3c(Nc4ccc(-n5ccnc5C)cc4)cccn3c2C)c1 [Compound 65],782,661,27200,17800,,,,
COc1cccc(-c2nc3c(Nc4cnc(-n5cnc(C)c5)nc4)cccn3c2C)c1 [Compound 46],,,,,52,50,> 3000,> 3020
COc1cc(Nc2cccn3cc(C4CC4)nc23)ccc1-n1cnc(C)c1 [Compound 116],,295,,> 3020,,,,
COc1cc(Nc2cccn3c(C(=O)c4ccc(F)cc4)cnc23)ccc1-n1cnc(C)c1 [Compound 62],477,417,> 10000,> 3020,,,,
COc1cc(Nc2cccn3cc(COC(C)C)nc23)ccc1-n1cnc(C)c1 [Compound 54],70,68,> 3000,> 3020,,,,
COc1cc(Nc2cc(C(F)(F)F)cn3cc(CO)nc23)ccc1-n1cnc(C)n1 [Compound 152],,1780,,> 3020,,,,
COc1cc(Nc2cccn3cc(-c4ccc(C(F)(F)F)cc4)nc23)ccc1-n1cnc(C)c1 [Compound 30],57,45,> 3000,> 3020,,,,
COc1cc(Nc2cccn3c(-c4ccccc4)c(-c4ccccc4)nc23)ccc1-n1cnc(C)c1 [Compound 13],89,87,> 3000,> 3020,,,,
Cc1ncn(-c2ccc(Nc3cccn4cc(-c5ccc(F)cc5C)nc34)cc2)n1 [Compound 90],,398,,> 3020,,,,
COc1cc(Nc2cccn3cc(-c4ccccc4Cl)nc23)ccc1-n1cnc(C)c1 [Compound 14],57,41,> 3000,> 3020,,,,
Cc1cc(F)ccc1-c1cn2cccc(Nc3ccc(-n4ncnc4C)c(F)c3)c2n1 [Compound 131],,245,,> 10000,,,,
